From patent US5618830A (priority 1995, dated 1997)
Where a name gives a salt, the structure may show the parent alone. Read-outs that look alike come from different tables or passages of the source.

Legend:
[1] = molecular target: influenza transcription (flu APR8 virus) (Influenza A virus, UniProt P03433); test: biochemical; set-up: species or system influenza virus A/PR/8/34 (H1N1)
[2] = molecular target: VSV transcription (Vesicular stomatitis Indiana virus, UniProt P03523); test: biochemical
[3] = molecular target: T7 Phage RNA Polymerase (Escherichia phage T7, UniProt P00573); test: T7 Phage RNA Polymerase assay; type: biochemical
[4] = molecular target: T1, Hela RNA Polymerase II (Homo sapiens, UniProt P24928); test: Hela RNA polymerase II run-off transcription; type: biochemical
T1 construct: Hela RNA polymerase II in Hela extract; endogenous in cells; host or cells: HeLa extract
Method: d. Hela RNA polymerase II-Compounds or DMSO were incubated in a run-off transcription assay using Hela RNA polymerase II in Hela extract with 50 ng/μl of pD5 template (Adeno major late promoter) in a final reaction containing 500 μM A,C,GTP and 0.5 μM [32]P-UTP in 15 mM Tris-HCl, pH 7.9/7.0 mM MGCl2 /32 mM (NH4)2 SO4 /0.2 mM EDTA/1.3 mM DTT for 60 min at 30° C. Following ethanol precipitation, reaction products were electrophoresed on 8% polyacrylamide gels containing 7M urea.

[5] = molecular target: T2, Hela DNA Polymerase-a (Homo sapiens, UniProt P09884); test: Hela DNA Polymerase-a assay; type: biochemical
T2 construct: Hela cell DNA polymerase α; endogenous in cells; host or cells: HeLa cells
T2 sequence (P09884 1-1462): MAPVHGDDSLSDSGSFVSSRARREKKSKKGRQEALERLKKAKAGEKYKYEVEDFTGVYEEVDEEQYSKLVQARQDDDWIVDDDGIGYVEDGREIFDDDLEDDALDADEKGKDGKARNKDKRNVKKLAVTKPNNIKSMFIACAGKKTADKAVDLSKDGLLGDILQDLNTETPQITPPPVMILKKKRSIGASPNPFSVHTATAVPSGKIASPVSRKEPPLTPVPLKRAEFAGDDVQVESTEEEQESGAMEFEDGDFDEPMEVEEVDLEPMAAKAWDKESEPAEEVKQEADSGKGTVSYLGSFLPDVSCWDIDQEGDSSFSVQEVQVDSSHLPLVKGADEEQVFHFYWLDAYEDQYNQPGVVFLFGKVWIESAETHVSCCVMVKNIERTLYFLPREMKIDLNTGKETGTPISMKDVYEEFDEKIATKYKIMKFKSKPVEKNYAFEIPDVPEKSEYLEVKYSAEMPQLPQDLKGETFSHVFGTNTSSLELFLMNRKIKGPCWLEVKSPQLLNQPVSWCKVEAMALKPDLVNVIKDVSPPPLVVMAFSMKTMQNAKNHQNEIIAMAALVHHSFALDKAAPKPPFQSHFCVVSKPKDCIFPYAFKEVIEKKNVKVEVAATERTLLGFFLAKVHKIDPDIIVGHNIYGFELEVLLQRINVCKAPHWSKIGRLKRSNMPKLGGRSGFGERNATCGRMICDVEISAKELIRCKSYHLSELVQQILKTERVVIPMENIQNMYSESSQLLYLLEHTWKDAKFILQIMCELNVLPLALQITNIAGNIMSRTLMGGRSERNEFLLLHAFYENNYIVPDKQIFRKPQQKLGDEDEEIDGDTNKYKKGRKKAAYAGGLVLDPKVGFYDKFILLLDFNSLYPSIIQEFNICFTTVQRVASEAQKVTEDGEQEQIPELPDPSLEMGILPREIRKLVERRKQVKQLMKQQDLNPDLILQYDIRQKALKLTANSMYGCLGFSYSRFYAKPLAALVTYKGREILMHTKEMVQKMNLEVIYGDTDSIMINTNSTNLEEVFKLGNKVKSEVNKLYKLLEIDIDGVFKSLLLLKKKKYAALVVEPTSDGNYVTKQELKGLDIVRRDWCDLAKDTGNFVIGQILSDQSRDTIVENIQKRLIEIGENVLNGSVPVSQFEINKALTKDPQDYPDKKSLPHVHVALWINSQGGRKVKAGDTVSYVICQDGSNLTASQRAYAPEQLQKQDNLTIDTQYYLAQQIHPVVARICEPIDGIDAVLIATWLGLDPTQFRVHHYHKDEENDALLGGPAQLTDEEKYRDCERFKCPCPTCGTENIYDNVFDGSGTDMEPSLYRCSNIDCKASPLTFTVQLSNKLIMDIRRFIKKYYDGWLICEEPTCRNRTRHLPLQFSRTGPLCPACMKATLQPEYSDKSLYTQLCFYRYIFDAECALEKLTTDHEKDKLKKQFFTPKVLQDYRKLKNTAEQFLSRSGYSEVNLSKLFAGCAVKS

[6] = molecular target: HIV RNase H (Human immunodeficiency virus type 1 group M subtype B, UniProt P04585); test: HIV RNase H assay; type: biochemical
[7] = molecular target: EcoRI Restriction Endonuclease (Escherichia coli, UniProt P00642); test: EcoRI Restriction Endonuclease assay; type: biochemical
[8] = molecular target: Influenza Endonuclease (Influenza A virus, UniProt P03433); test: biochemical
[9] = molecular target: influenza virus transcription (Influenza A virus (A/Japan/305-/1957(H2N2)), UniProt Q1K9Q4); type: biochemical, influenza virus A/Japan/305/57 (H2N2); conditions: read-out: IC50, inhibition of influenza virus transcription; virus strain A/Japan/305/57 (H2N2); primed with cap1 ALMV
[10] = molecular target: influenza virus transcription (Influenza A virus (A/Port Chalmers/1/1973(H3N2)), UniProt Q1PUD2); type: biochemical, influenza virus A/Port Chalmers/1/73 (H3N2); conditions: read-out: IC50, inhibition of influenza virus transcription
[11] = molecular target: influenza virus transcription (Influenza A virus (A/nt/60/1968(H3N2)), UniProt P03434); type: biochemical, influenza virus A/Hong Kong/8/68 (H3N2); conditions: read-out: IC50, inhibition of influenza virus transcription; virus strain A/Hong Kong/8/68 (H3N2); primed with cap1 ALMV
[12] = tested on: influenza virus transcription; test: in vitro transcription primed with cap1 ALMV, B/Hong Kong/5/72; type: biochemical, influenza virus B/Hong Kong/5/72; conditions: virus strain B/Hong Kong/5/72, read-out: IC50, inhibition of influenza virus transcription
[13] = molecular target: cap-independent influenza transcription primed with ApG (Influenza A virus, UniProt P03431); test: biochemical
[14] = molecular target: RNase A (Bos taurus, UniProt P61823); test: RNase A assay
[15] = molecular target: RNase U2 (Ustilago sphaerogena, UniProt P00654); test: RNase U2 assay
[16] = molecular target: RNase T1 (Aspergillus oryzae, UniProt P00651); test: RNase T1 assay

SMILES: O=C(O)C(=O)CC(=O)C1(Cc2ccc(Cl)cc2)CCCN(Cc2ccccc2)C1 (centres unmarked) [Compound A, 4-[N-benzyl-3-(4-chlorobenzyl)piperidin-3-yl]2,4-dioxobutanoic acid hydrochloride]
- IC50 [1]: 1.1 µM
- IC50 ([1]; read-out: IC50, inhibition of influenza virus transcription): 1.1 µM
- IC50 [2]: > 500 µM
- IC50 [3]: > 100 µM
- IC50 [4]: > 500 µM
- IC50 [5]: > 100 µM
- IC50 [6]: 100 µM
- IC50 [7]: > 500 µM
- IC50 [8]: 1.8 µM
- IC50 [9]: 0.25 µM
- IC50 [10]: 0.5 µM
- IC50 [11]: 0.62 µM
- IC50 [12]: 0.85 µM
- IC50 [13]: > 1000 µM
- IC50 [14]: > 200 µM
- IC50 [15]: > 200 µM
- IC50 [16]: > 200 µM
